Literature values, collected in patent publication EP4635967A1, “OLIGONUCLEOTIDE COMPRISING LIPOPHILIC MONOMER AND USE THEREOF IN NON-LIVER DELIVERY” (Tuojie Biotech (Shanghai) Co., Ltd., priority 2022, dated 2024).

Conditions: octanol-water partition coefficient, example values in the definition of lipophilic moiety

| logKow | Compound |
| --- | --- |
| 10.7 | CC(C)CCC[C@@H](C)[C@H]1CC[C@H]2[C@@H]3CC=C4C[C@@H](OC(=O)NCCCCCCO)CC[C@]4(C)[C@H]3CC[C@]12C [cholesteryl N-(hexan-6-ol)carbamate] |
| about 0.7 | NCCCCCCO [6-aminohexanol] |
